In article PMC8067754, “Active Transport of Hepatotoxic Pyrrolizidine Alkaloids in HepaRG Cells” (International Journal of Molecular Sciences, 2021):
“And” between values parts separate entries of the source, which are not always exact repeats. Identical values can stand only once.

Test system: HepaRG cells
Test: PA and PANO content in cell culture medium of HepaRG cells upon pharmacological transporter inhibition (LC-MS/MS)
Assay type: in vitro ADME, human
Method: In the case of TEA, cells were pre-incubated 24 h prior to PA treatment. The inhibitors were applied anew at PA incubation.
In order to measure time-dependent depletion of PA and PANO content in cell culture medium, cells were seeded at a density of 0.2 × 10^6 cells per well in a 6-well plate and cultivated as described in Section 4.2. After four weeks of cultivation, cells were adapted to serum-free medium and medium substituted with insulin, transferrin, selenium (ITS) serum extender (Capricorn Scientific, Ebsdorfergrund, Germany) 48 h prior to PA incubation for optimal LC-MS/MS measurements. […] Samples were taken after 2 h, 4 h, 8 h and 24 h.
Briefly, chromatographic separation of PA/PANO analytes was achieved on a 50 × 2.1 mm Kinetex ™ 2.6 μm CoreShell EVO C18 100 Å column protected by a SecurityGuard ™ ULTRA EVO C 18 2.1 mm guard column (both Phenomenex, Aschaffenburg, Germany) at a flow rate of 0.4 mL/min on a Shimadzu high performance liquid chromatography (HPLC) apparatus (LC-20AB, SIL-20AC HT, CTO-20AC, CBM-20A, Duisburg, Germany) coupled to an API4000 triple quadrupole MS (Sciex, Darmstadt, Germany). The following MS parameters were used for measurements in positive electrospray ionisation (ESI+) mode: ionisation voltage 2500 V, nebuliser gas 50 psi, heating gas 50 psi, curtain gas 30 psi, temperature 600 °C, collision gas level 7. The substance specific parameters are summarized in Kaltner et al. 2019 [79].

C/C=C1/C[C@@H](C)[C@@](C)(O)C(=O)OCC2=CCN3CC[C@@H](OC1=O)[C@@H]23 [Senecionine, senecionine]
PA content in medium, single replicates (8h, no inhibitor, repl. 1-5): 8.726%
PA content in medium, single replicates (8h, plus Ko143, repl. 1-3): 4.478% and 4.105%
PA in medium, Mean [%] (no inhibitor, 0h): 100%
PA in medium, Mean [%] (no inhibitor, 4h): 25.6172%
PA in medium, single replicates (repl.) (no inhibitor, 4h): 20.2703% and 36.4212% and 41.9726% and 18.235% and 11.1867%
PA in medium, Mean [%] (no inhibitor, 8h): 8.337%
PA in medium, single replicates (repl.) (no inhibitor, 8h): 5.95% and 13.0309% and 15.415% and 3.983% and 3.308%
PA in medium, Mean [%] (no inhibitor, 24h): 0.1453%
PA in medium, single replicates (repl.) (no inhibitor, 24h): 0% (3×) and 0.3901% and 0.3363%
PA in medium, Mean [%] (plus CsA, 0h): 100%
PA in medium, single replicates (repl.) (plus CsA, 0h): 100%
PA in medium, Mean [%] (plus CsA, 4h): 83.5787%
PA in medium, single replicates (repl.) (plus CsA, 4h): 100.41% and 74.0814%
PA in medium, Mean [%] (plus CsA, 8h): 79.3329%
PA in medium, single replicates (repl.) (plus CsA, 8h): 78.1367% and 71.9298%
PA in medium, Mean [%] (plus CsA, 24h): 63.0445%
PA in medium, single replicates (repl.) (plus CsA, 24h): 81.6295% and 67.7648% and 39.7392%
PA in medium, Mean [%] (plus Ko143, 0h): 100%
PA in medium, single replicates (repl.) (plus Ko143, 0h): 100%
PA in medium, Mean [%] (plus Ko143, 4h): 27.3505%
PA in medium, single replicates (repl.) (plus Ko143, 4h): 21.9905% and 15.6142% and 44.4468%
PA in medium, Mean [%] (plus Ko143, 8h): 9.179%
PA in medium, single replicates (repl.) (plus Ko143, 8h): 5.449% and 3.069% and 19.0198%
PA in medium, Mean [%] (plus Ko143, 24h): 0.2576%
PA in medium, single replicates (repl.) (plus Ko143, 24h): 0% (2×) and 0.7727%
PA in medium, Mean [%] (plus MK-571, 0h): 100%
PA in medium, Mean [%] (plus MK-571, 4h): 87.0627%
PA in medium, single replicates (repl.) (plus MK-571, 4h): 81.9366% and 96.8826% and 82.369%
PA in medium, Mean [%] (plus MK-571, 8h): 64.688%
PA in medium, single replicates (repl.) (plus MK-571, 8h): 76.7573% and 68.0778% and 49.229%
PA in medium, Mean [%] (plus MK-571, 24h): 22.3298%
PA in medium, single replicates (repl.) (plus MK-571, 24h): 51.6203% and 9.723% and 5.646%
PA in medium, Mean [%] (plus Qu, 0h): 100%
PA in medium, single replicates (repl.) (plus Qu, 0h): 100%
PA in medium, single replicates (repl.) (plus Qu, 4h): 89.6889% and 96.62%
PA in medium, single replicates (repl.) (plus Qu, 8h): 89.9877% and 75.5125% and 84.2%
PA in medium, single replicates (repl.) (plus Qu, 24h): 67.9609% and 61.3936% and 73.11%
PA in medium, Mean [%] (plus TEA, 0h): 100%
PA in medium, single replicates (repl.) (plus TEA, 0h): 100%
PA in medium, Mean [%] (plus TEA, 4h): 61.4268%
PA in medium, single replicates (repl.) (plus TEA, 4h): 53.1634% and 46.1792% and 84.938%
PA in medium, Mean [%] (plus TEA, 8h): 43.7039%
PA in medium, single replicates (repl.) (plus TEA, 8h): 34.8001% and 27.837%
PA in medium, Mean [%] (plus TEA, 24h): 19.1005%
PA in medium, single replicates (repl.) (plus TEA, 24h): 7.953% and 7.514% and 41.8346%
